Measurements published in US9662322B2 (TEVA PHARMACEUTICAL INDUSTRIES, LTD., priority 2014, dated 2017).

Columns and labels:
[1] = system: subjects with relapsing remitting multiple sclerosis (RRMS); assay: ALLEGRO Phase III trial: disability endpoints (EDSS, MSFC); type: in vivo, human; conditions: for Time to confirmed (3 Ms) progression - EDSS, patients progressed: 24 months
Description: Secondary endpoints were disability progression as measured by the EDSS and the Multiple Sclerosis Functional Composite (MSFC). Confirmed disability progression was defined as an increase of ≧1.0 EDSS point from baseline if baseline EDSS was between 0 and 5.0, or an increase of ≧0.5 point if baseline EDSS was ≧5.5. In order to confirm EDSS progression, these increases had to be sustained for at least three months. Additional predefined disability endpoints include the proportion of patients without confirmed disability progression at 24 months; confirmed disability progression (defined as change in EDSS scores ≧1.0 points for baseline EDSS 0 to 5.0 or ≧5.5) sustained for six months; the accumulation of physical disability as measured by mean EDSS and the mean change in EDSS from baseline to last observed value (LOV). For the MSFC, the measure was the total MSFC z score at 24 months (including patients who terminated after 12 months). The 9-hole peg test (9HPT) and the Paced Auditory Serial Addition Test (PASAT) were performed three times at screening to reduce confounding training effects during the trial. • 1. Accumulation of physical disability measured by the time to confirmed progression of EDSS during the study period (A confirmed progression of EDSS is defined as a 1 point increase from baseline on EDSS score if baseline EDSS was between 0 and 5.0, or a 0.5 point increase if the baseline EDSS was 5.5, confirmed 3 months later. Progression cannot be confirmed during a relapse). • 2. Disability, as assessed by the MSFC score at the end of the treatment period (month 24/30). • 3. The cumulative number of new T2 lesions on scans taken on months 12 and 24 (and 30 in the case of the 6 months extended study). • 4. The cumulative number of enhancing lesions on T1-weighted images taken on months 12 and 24 (and 30 in case of extending the study for 6 months.) Safety and Tolerability Outcome Measures • 1. Adverse events. • 2. Vital signs. • 3. Weight. • 4. Physical examination. • 5. Electrocardiogram (ECG) findings. • 6. Clinical laboratory parameters. • 7. Proportion of subjects (%) who prematurely discontinued from the study, reason of discontinuation and the time to withdrawal. • 8. Proportion of subjects (%) who prematurely discontinued form the study due to AEs and the time to withdrawal. […] To control against type-I error, the secondary endpoints were analyzed only after a significant effect was found for the primary endpoint. […] The MSFC at month 24 was analyzed using a baseline-adjusted ANCOVA (SAS@PROC GLM) with baseline MSFC as 1 degree of freedom covariate and baseline EDSS score, log of the 2-year prior relapse rate +1 and country or geographical region as additional covariates. […]

patients with RRMS = assay: Post hoc analysis of pooled ALLEGRO and BRAVO trials by baseline EDSS subgroup; type: in vivo, human; conditions: for Annualized Relapse Rate, Ratio: LAQ 0.6 mg vs PBO
Description: The observed effect of LAQ on Confirmed Disability Progression (CDP) is disproportionately larger than would be predicted by the observed LAQ effect on relapse rate reduction.
ALELGRO and BRAVO trials described above enrolled ambulatory patients with RRMS, aged 18-55 years, with EDSS scores ≦5.5. Patients included in the study had • 1. ≧1 relapse in the previous year, or • 2. 2 relapses in the previous 2 years, or • 3. 1 relapse in the previous 1-2 years and ≧1 GdE lesion in the previous year.
Patients were randomized 1:1 to LAQ 0.6 mg or PBO in the ALLEGRO study; in BRAVO patients were randomized 1:1:1 LAQ 0.6 or PBO or weekly interferon β 1a 30 μg.
This post hoc analysis include patients randomized to LAQ 0.6 mg or PBO only. Endpoints include ARR, time to CDP (defined as an increase from baseline in EDSS score of ≧1 point if baseline EDSS is ≦5, or of ≧0.5 point if baseline EDSS is >5), sustained for 3 or 6 months; and MSFC components including the Timed 25-Foot Walk (T25FW) test.
LAQ vs. […] Adjusted mean z-score differences and 95% CIs were evaluated by ANCOVA.
MRI endpoints included brain atrophy measured percent brain volume change (PBVC), and cumulative numbers of gadolinium-enhancing (GdE) and new T2 lesions at months 12 and 24.

## CCN(C(=O)c1c(O)c2c(Cl)cccc2n(C)c1=O)c1ccccc1 [Laquinimod, laquinimod]
[1]
  Time to confirmed (3 Ms) progression - EDSS, patients progressed: 9.8% progressed
[1]; listed as laquinimod
  Time to confirmed (3 Ms) progression - EDSS, patients progressed: 9.8 % progressed
[1]; last observed value
  EDSS score at LOV, median: 2.5
[1]; vs placebo
  MSFC total z scores at 24 months, Effect: reduction of risk to progress: 34% reduction of
Patients with RRMS; baseline EDSS >3
  T25FW time increase after 24 months (adjusted mean): 1.9 s
Patients with RRMS; baseline EDSS >3.0
  9HPT Change from Baseline to Month 24, Adj. Mean Diff.: −1.590
  Brain Atrophy as defined by PBVC, adjusted mean difference: 0.39
  Cumulative GdE T1 Lesions at Months 12 and 24, Rate Ratio: 0.83
  Cumulative New/Enlarging T2 Lesions at Months 12 and 24, Rate Ratio: 0.75
  Disability as Assessed by MSFC z-Score at Month 24, adjusted mean difference: 0.25
  PASAT Change from Baseline to Month 24, Adj. Mean Diff.: 0.586
  Time to 3-month CDP, Hazard Ratio: 0.60
  Time to 6-month CDP, Hazard Ratio: 0.47
  Annualized Relapse Rate, Ratio: 0.75
Patients with RRMS; baseline EDSS >3 (worsening MS), vs PBO
  Reduction in 6-month CDP: 53%
Patients with RRMS; baseline EDSS >3, vs PBO
  Reduction of 3-month CDP: 40%
  Reduction of ARR: 25%
Patients with RRMS; baseline EDSS >3, vs PBO, 24 months
  Improvement / treatment effect size on the T25FW component: 59%
Patients with RRMS; baseline EDSS >3.0, listed as LAQ
  T25FW Change from Baseline to Month 24, Adj. Mean Diff.: -2.79 s
Patients with RRMS; baseline EDSS >3 with CDP, vs PBO
  T25FW treatment effect among subjects who experienced CDP: 8.6 s
Patients with RRMS; baseline EDSS ≦3
  Treatment differences in T25FW: No treatment differences
Patients with RRMS; baseline EDSS ≦3.0
  9HPT Change from Baseline to Month 24, Adj. Mean Diff.: −1.108
  Brain Atrophy as defined by PBVC, adjusted mean difference: 0.34
  Cumulative GdE T1 Lesions at Months 12 and 24, Rate Ratio: 0.66
  Cumulative New/Enlarging T2 Lesions at Months 12 and 24, Rate Ratio: 0.77
  Disability as Assessed by MSFC z-Score at Month 24, adjusted mean difference: −0.02
  PASAT Change from Baseline to Month 24, Adj. Mean Diff.: 0.302
  T25FW Change from Baseline to Month 24, Adj. Mean Diff.: 0.055 s
  Time to 3-month CDP, Hazard Ratio: 0.69
  Time to 6-month CDP, Hazard Ratio: 0.60
  Annualized Relapse Rate, Ratio: 0.80
